Measured values: article PMC3814616, “BRAF inhibitors suppress apoptosis through off-target inhibition of JNK signaling” (eLife, 2013)

Legend:
[1] = test system: phospho-JNK and phospho-p38; assay: Western blot, UV-induced phospho-JNK and phospho-p38 in NHEKs; type: cell-based, human; settings: NHEK, 1 μM, most significantly at 6 and 24 hr
Text: We next examined the responses of primary normal human epidermal keratinocytes (NHEKs) to vemurafenib. […] In probing members of the BCL2 family, we found similar results to those in the cSCC and HaCaT cell lines. […] The advantage of using primary cells is that p53 is intact.
Figure 2. […] DOI: http://dx.doi.org/10.7554/eLife.00969.010 [drawing 5]

[2] = test system: cleaved caspase-3; assay: Immunohistochemistry of cSCC from vemurafenib-treated patients vs sporadic cSCC; type: in vivo, human; settings: stained cells per mm^2 tumor, p=0.042
Experimental: (§1) Phospho-JNK and cleaved caspase-3 expression were assessed by immunohistochemistry and then quantified following normalization by unit area (mm^2) of tumor tissue (malignant keratinocytes) only (Figure 4A–D, Figure 4—figure supplement 1).
(§2) Cutaneous squamous cell carcinomas biopsied from patients treated with or without BRAF-inhibitor were obtained either under clinical trials (Roche) or separate IRB approval (LAB08-0750). Staining levels were quantified by counting positively labeled cells and dividing by the total area of the tumor tissue within each sample. To measure tumor areas, all samples were photographed, tumor cells outlined, and total pixel numbers calculated using included image analysis tools in Adobe Photoshop and standardized to a hemacytometer to convert to mm^2. To measure apoptosis in irradiated skin, pyknotic or dyskeratotic epidermal keratinocytes were counted and normalized to length (mm) of epidermis.

[3] = test system: phospho-JNK; assay: as above; type: in vivo, human; settings: stained cells per mm^2 tumor, p=0.013
Experimental: as §1, §2

[4] = target: T1, FGR (Homo sapiens, UniProt P09769); set-up: method as in Bollag et al., 2010; settings: ref Bollag et al., 2010; read-out: Published biochemical IC50; cited from earlier work
T1 construct: purchased KINOMEscan (DiscoveRx), San Diego, CA
T1 sequence (P09769 whole entry): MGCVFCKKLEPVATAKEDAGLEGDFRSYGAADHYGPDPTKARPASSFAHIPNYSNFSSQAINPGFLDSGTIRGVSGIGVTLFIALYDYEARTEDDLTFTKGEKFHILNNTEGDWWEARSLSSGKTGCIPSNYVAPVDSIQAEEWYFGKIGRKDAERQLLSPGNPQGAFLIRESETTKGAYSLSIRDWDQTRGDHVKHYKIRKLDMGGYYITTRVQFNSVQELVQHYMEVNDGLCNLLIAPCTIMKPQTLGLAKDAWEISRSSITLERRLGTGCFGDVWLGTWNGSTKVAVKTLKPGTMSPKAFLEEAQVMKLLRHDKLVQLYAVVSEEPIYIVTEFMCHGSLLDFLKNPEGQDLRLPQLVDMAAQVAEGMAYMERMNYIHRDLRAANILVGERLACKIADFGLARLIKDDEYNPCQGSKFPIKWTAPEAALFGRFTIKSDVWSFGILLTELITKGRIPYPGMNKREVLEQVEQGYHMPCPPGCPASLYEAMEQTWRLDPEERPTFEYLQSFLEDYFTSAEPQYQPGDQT

[5] = target: T2, MAP4K4 (Homo sapiens, UniProt O95819); set-up: method as in Bollag et al., 2010; settings: ref Bollag et al., 2010; read-out: Published biochemical IC50; cited from earlier work
T2 construct: purchased KINOMEscan (DiscoveRx), San Diego, CA
T2 sequence (O95819 whole entry): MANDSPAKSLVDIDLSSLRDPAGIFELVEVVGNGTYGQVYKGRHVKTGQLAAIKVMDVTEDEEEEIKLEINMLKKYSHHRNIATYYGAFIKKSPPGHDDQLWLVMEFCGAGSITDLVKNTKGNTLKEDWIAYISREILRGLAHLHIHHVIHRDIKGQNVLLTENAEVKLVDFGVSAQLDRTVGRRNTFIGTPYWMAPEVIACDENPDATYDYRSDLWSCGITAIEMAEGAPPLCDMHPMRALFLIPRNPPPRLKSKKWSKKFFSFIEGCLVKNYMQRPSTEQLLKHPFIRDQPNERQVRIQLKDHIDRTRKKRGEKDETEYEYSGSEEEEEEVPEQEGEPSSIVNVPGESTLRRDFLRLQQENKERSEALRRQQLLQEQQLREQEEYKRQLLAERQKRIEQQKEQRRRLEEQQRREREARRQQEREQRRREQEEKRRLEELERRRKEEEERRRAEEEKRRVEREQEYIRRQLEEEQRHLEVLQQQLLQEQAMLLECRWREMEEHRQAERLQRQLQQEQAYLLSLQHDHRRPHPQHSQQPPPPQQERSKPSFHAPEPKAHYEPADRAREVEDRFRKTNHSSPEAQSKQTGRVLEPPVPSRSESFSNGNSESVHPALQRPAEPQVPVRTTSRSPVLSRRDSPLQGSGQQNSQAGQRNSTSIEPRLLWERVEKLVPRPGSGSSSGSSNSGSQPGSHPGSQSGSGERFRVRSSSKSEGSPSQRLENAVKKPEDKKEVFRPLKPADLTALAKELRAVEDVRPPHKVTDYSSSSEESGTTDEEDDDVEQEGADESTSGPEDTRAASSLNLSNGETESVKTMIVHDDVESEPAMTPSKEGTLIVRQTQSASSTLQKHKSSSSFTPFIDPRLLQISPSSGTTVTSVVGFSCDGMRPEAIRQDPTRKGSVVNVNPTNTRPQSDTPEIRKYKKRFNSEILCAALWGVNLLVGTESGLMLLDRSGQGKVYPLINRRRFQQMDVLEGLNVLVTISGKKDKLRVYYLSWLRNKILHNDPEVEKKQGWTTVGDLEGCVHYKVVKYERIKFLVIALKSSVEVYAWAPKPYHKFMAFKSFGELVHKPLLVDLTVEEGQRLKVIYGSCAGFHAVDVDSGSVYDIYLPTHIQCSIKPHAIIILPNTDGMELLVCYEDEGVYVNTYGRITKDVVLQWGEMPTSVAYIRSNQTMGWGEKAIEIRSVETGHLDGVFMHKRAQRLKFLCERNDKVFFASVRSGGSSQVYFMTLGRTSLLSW

[6] = target: T3, MINK (MINK1) (Homo sapiens, UniProt Q8N4C8); set-up: method as in Bollag et al., 2010; settings: ref Bollag et al., 2010; read-out: Published biochemical IC50; cited from earlier work
T3 construct: purchased KINOMEscan (DiscoveRx), San Diego, CA
T3 sequence (Q8N4C8 whole entry): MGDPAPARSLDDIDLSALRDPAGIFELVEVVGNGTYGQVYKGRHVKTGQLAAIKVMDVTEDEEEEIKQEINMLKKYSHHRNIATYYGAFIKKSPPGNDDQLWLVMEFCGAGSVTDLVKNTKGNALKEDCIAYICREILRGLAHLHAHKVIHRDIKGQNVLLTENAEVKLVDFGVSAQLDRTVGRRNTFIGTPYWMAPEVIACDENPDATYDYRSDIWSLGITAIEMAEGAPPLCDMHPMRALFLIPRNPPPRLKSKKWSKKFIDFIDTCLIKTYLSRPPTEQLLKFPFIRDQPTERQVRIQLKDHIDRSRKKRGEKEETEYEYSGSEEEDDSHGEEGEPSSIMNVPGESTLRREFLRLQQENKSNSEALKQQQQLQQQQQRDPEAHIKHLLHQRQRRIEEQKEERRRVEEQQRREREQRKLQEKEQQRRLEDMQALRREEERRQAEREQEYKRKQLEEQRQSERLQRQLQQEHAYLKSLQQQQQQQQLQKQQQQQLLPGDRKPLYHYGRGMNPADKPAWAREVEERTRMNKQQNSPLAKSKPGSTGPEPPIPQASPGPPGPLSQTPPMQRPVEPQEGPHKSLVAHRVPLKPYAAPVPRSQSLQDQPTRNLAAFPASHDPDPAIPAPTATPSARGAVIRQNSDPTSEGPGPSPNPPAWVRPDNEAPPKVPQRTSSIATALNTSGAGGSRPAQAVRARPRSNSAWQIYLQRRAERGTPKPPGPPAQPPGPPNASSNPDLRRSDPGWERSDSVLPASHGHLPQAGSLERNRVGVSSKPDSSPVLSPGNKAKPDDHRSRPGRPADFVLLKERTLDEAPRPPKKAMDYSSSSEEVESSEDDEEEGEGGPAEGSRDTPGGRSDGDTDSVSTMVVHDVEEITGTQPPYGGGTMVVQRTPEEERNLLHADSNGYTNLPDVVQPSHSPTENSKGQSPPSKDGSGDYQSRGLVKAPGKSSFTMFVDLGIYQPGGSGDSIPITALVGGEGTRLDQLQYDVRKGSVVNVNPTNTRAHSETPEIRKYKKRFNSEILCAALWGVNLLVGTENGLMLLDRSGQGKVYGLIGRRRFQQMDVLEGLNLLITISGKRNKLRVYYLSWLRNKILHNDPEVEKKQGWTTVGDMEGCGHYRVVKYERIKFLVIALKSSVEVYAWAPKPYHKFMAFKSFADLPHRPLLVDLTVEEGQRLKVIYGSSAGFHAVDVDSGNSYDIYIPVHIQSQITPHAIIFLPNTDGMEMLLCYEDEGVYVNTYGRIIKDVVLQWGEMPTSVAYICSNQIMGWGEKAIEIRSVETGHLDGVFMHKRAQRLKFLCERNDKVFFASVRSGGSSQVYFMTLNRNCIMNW

[7] = 960 mg PO BID, ref Flaherty et al., 2010; cited from earlier work
[8] = test system: cSCC (SRB1, SRB12, COLO16) and HaCaT cell lines; assay: Long-term proliferation (serial passage and counting, at least 28 days); type: cell-based, human
[9] = test system: Hairless mice; assay: UV-driven cSCC development in chronically-irradiated Hairless mice; type: in vivo, mouse
Text: We also used the Hairless mouse model of squamous cell carcinoma to assess whether PLX4720 would affect UV-driven tumor development. This is particularly relevant since it appears that UV exposure is an important initiating event in BRAFi-accelerated cSCC ([Su et al., 2012]). Unlike the DMBA/TPA model, in which lesions almost universally harbor Hras mutations ([Brown et al., 1990]), the Hairless model has a very low frequency of Ras mutation in papillomas and carcinomas ([van Kranen et al., 1995]), more similar to sporadic human cSCC. […] Within 20 days of administration of drug, hyperkeratotic papules were visible on the backs of PLX4720-treated animals (Figure 5A,B), which steadily grew into cSCC over the following several weeks (Figure 5C,D). Within this period of 150 days (78 days of drug treatment), control-treated mice had not yet developed any visible lesions (Figure 5E). […]
Figure 5. […] (A and B) cDNA was reverse-transcribed from total RNA, PCR-amplified with the above primers (B) and analyzed by Sanger sequencing for mutations in both directions. No mutations in Hras, Kras, or Nras were detected in any of the papillomas (n = 5) or carcinomas (n = 3) isolated from PLX4720-treated mice. […]

[10] = test system: E1A and HRAS^G12V-transformed wild-type (WT) MEFs; assay: Soft agar colony formation; type: cell-based, mouse; settings: 0.2 μM and 1.0 μM, 4–6 weeks
[11] = test system: HRAS^G12V-transformed HaCaT cells (SCR, TKD); assay: Soft agar colony formation; type: cell-based, human; settings: 1.0 μM, SCR and TKD cells
[12] = target: T4, MST1 (STK4) (Homo sapiens, UniProt Q13043); set-up: method as in Tsai et al., 2008; settings: ref Tsai et al., 2008; read-out: Published biochemical IC50; cited from earlier work
T4 construct: purchased KINOMEscan (DiscoveRx), San Diego, CA
T4 sequence (Q13043 1-487): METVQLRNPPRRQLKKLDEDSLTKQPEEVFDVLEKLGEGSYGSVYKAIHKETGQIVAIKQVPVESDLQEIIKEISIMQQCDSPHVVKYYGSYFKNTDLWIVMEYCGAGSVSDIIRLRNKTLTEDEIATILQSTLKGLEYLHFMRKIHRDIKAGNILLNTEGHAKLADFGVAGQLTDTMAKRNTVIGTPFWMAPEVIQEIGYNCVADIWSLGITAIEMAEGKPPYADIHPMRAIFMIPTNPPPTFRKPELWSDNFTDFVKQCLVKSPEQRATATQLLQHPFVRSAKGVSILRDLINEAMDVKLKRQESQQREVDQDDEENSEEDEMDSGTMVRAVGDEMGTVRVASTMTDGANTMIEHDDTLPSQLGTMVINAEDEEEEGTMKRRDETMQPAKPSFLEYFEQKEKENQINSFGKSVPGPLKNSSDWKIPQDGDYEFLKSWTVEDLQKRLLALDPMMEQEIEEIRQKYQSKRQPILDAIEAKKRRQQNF

[13] = test system: A375 melanoma cell line; settings: ref Tsai et al., 2008; cited from earlier work
[14] = test system: phospho-JNK; assay: Western blot of epidermis of irradiated mice; settings: oral gavage 40–80 mg/kg twice a day, 10 kJ/m^2 UVB

SMILES | UV-induced upregulation of phospho-JNK and phospho-p38 [1] | cleaved caspase-3 expression in cSCC of treated patients vs sporadic cSCC [2] | phospho-JNK expression in cSCC of treated patients vs sporadic cSCC [3] | IC50 [4] [nM] | IC50 [5] [nM] | IC50 [6] [nM] | mean sustained serum levels [7] [µM] | proliferation of SRB12 and HaCaT cells ([8]; 1 μM, at least 28 days) | proliferation, all cells ([8]; 5 μM, at least 28 days) | proliferative advantage ([8]; cells without oncogenic RAS or BRAF mutations) | reduction in latency of papillomas and cSCC ([9]; chronically-irradiated Hairless mice) | time from start of drug to visible hyperkeratotic papules ([9]; drug-impregnated chow from day 72, 12.5 kJ/m^2 per week UVB) [days] | colony formation [10] | colony formation [11] | IC50 [12] [nM] | GI50 [13] [nM] | UV-induced phospho-JNK in epidermis [14]
CCCS(=O)(=O)Nc1ccc(F)c(C(=O)c2c[nH]c3ncc(-c4ccc(Cl)cc4)cc23)c1F [vemurafenib] | suppressed | significant reductions | significant reductions | 63 | > 1000 | > 1000 | 86 | – | – | – | – | – | – | – | – | – | –
CCCS(=O)(=O)Nc1ccc(F)c(C(=O)c2c[nH]c3ncc(Cl)cc23)c1F [PLX4720] | – | – | – | – | – | – | – | slight decrement in the proliferation | decreased proliferation | no significant proliferative advantage | at least 10 weeks | ≤ 20 | significant colony formation advantage | significant colony formation advantage | > 5000 | 500 | significantly suppressed
